{"source": "patent US5175283A", "about": "“Azetidin-2-one derivatives as serine protease inhibitors” (Bristol-Myers Squibb Company, priority 1992, dated 1992)", "key": {"human α-thrombin [1]": {"molecular_target": "T1, human α-thrombin (Homo sapiens, UniProt P00734)", "T1 construct": "purified human α-thrombin dissolved in thrombin assay buffer", "experiment": "Enzyme assay for the inhibition of thrombin (s-2238 substrate)", "assay_type": "biochemical", "procedure": "1. Enzyme Assays for the Inhibition of Thrombin The following reagents were used in these assays: Thrombin assay buffer: 145 mM NaCl, 5 mM KCl, 30 mM N-2-hydroxyethyl piperazine-N'-2-ethanesulfonic acid, pH 7.4, 1 mg/ml polyethylene glycol (PEG-8000). 3 mM D-Phe-Pip-Arg-p-nitroanilide (s-2238) in H2 O. 3 U/ml purified human α-thrombin dissolved in thrombin assay buffer. Inhibitors to be tested were dissolved in H2 O, methanol, or DMSO just prior to use. Assay Procedure To each well in a 96-well microtiter plate, 270 μl of assay buffer was added. Human α-thrombin (10 μl of 3 U/ml) was added, then 10 μl of inhibitor were added and mixed. The samples were incubated at room temperature for a defined period of time (3 min for initial IC50 determinations). The enzymic reaction was started with 10 μl of 3 mM s-2238 substrate and continued at room temperature. The change in optical density was measured at 405 nm. A kinetic microplate reader (Molecular Devices Corporation Vmax) was used to measure the change in optical density over time. Results are reported in Table 1 as IC50 values, i.e., the drug concentration in mole/liter which caused 50% inhibition of the enzyme activity (after incubation of the drug with the enzyme for 3 min). Alternatively, results are also reported in Table 1 expressed as k2 /ki which is the second order rate constant in per mole per minute for inactivation time of the enzyme [Kitz, et al., J. Biol. Chem., 237, 3245 (1962)]."}, "[2]": {"molecular_target": "T2, bovine pancreatic trypsin (Bos taurus, UniProt P00760)", "T2 construct": "purified bovine pancreatic trypsin dissolved in trypsin assay buffer", "T2 sequence (P00760 24-246)": "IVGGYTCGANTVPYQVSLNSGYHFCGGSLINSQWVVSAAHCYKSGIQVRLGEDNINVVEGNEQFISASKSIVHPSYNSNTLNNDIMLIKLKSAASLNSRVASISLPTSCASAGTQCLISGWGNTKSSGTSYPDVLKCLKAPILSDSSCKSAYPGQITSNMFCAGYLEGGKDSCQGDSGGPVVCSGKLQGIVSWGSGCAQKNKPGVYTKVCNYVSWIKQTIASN", "experiment": "Enzyme assay for the inhibition of trypsin (Z-Val-Gly-Arg-pNA substrate)", "assay_type": "biochemical", "settings": "3 min incubation of drug with enzyme, room temperature, pH 8.0; read-out: Trypsin IC50", "procedure": "2. Enzyme Assays for the Inhibition of Trypsin\n(§1) The following reagents were used in these assays:\nTrypsin assay buffer: 2 mM CaCl2, 50 mM Tris/Cl pH 8.0.\n3 mM Z-Val-Gly-Arg-pNA (Chromzyme TRy) dissolved in H2 O.\n6 μg/ml of purified bovine pancreatic trypsin dissolved in trypsin assay buffer.\nInhibitors to be tested were dissolved in H2 O, methanol or DMSO just prior to use.\nTo each well in a 96-well microtiter plate, 270 μl of assay buffer was added. Bovine trypsin (10 μl of 6 μg/ml) was added. Inhibitor (10 μl ) was added, mixed, and then incubated at room temperature for 3 min. The enzymic reaction was started with 10 μl of 3 mM Z-Val-Gly-Arg-pNA substrate. The change in optical density was measured at 405 nm at room temperature. A kinetic microplate reader (Molecular Devices Corporation Vmax) was used to measure the change in optical density over time.\nResults are reported in Table 1 as IC50 values, i.e., the drug concentration in mole/liter which caused 50% inhibition of the enzyme activity (after incubation of the drug with the enzyme for 3 min)."}, "human α-thrombin [3]": {"molecular_target": "T1, human α-thrombin", "experiment": "Concentration required for doubling thrombin clotting time in human plasma", "assay_type": "biochemical", "settings": "human citrated plasma, 10 U/ml human thrombin; read-out: ED50, drug concentration required to double clotting time", "procedure": "Procedure for Determining the Concentration Required for Doubling Thrombin Clotting Time--Clotting Time Assays The following reagents were used in these assays: Owren's Veronal Buffer: 125 mM NaCl, 28.4 mM sodium barbital, pH 7.35. Human citrated plasma obtained from human volunteers or citrated plasma obtained from IP-dosed animals (prepared as described below). 10 NIH Units/ml human α-thrombin in thrombin buffer for use with human plasma. […] The blood was centrifuged at […] (480×g) for 15 min at room temperature (using a Sorvall RT 6000B centrifuge). The plasma was removed, pooled, and aliquoted into small tubes which were stored frozen for later use. Clotting Time Measurement Clotting times were determined by pipetting 0.1 ml of Owren's buffer (pre-warmed 37° C.) and 0.1 ml of human or rat plasma into yellow sample cuvettes. For studies with human plasma 10 U/ml human thrombin (10 ml) was placed in the reservoir assembly station of the MLA 700. (Medical Laboratory Automation, Electra 700 Reservoir Assembly). For rat studies, the human thrombin concentration was 25 U/ml. The cuvettes were vortexed and then placed on the MLA 700 sample wheel. The coagulation timer (MLA 700) automatically dispenses 0.1 ml human thrombin into the sample in each cuvette. Detection of the fibrin clot was determined optically by the MLA 700. Studies were performed to determine the concentration of drug which caused a doubling of the clotting time in human plasma. From standard curves of thrombin activity added to the sample versus the clotting time, the concentration of drug which caused a doubling of the thrombin clotting time corresponded to inhibition of approximately 1/2 of the added thrombin clotting activity. Results are reported in Table 1 as ED50 values, i.e., the drug concentration required to double clotting time."}, "[4]": {"test_system": "Thrombin Induced Clotting Time", "experiment": "Thrombin induced clotting time ex vivo in plasma of i.p. dosed rats", "settings": "rat, 50 mg/kg i.p.; for Thrombin Induced Clotting Time (1:4 Control Plasma): plasma diluted 1:4 with control plasma; for Thrombin Induced Clotting Time, terminated samples / Thrombin Induced Clotting Time: undiluted plasma, per animal", "procedure": "Procedure for Determining the Concentration Required for Doubling Thrombin Clotting Time--Clotting Time Assays\nas §1\nOwren's Veronal Buffer: 125 mM NaCl, 28.4 mM sodium barbital, pH 7.35.\nHuman citrated plasma obtained from human volunteers or citrated plasma obtained from IP-dosed animals (prepared as described below).\n25 NIH Units/ml human α-thrombin in thrombin buffer for use with rat plasma.\nTest compound was prepared just prior to dosing. Routinely the drugs are dissolved in water. Animals were dosed by i.p. injection.\nAfter the appropriate time period, the animals were ether-anesthetized, and blood was drawn by cardiac puncture using 333 μl of 3.8% sodium citrate per 3 ml blood. After all of the samples were obtained, the tubes were centrifuged at 1,500 rpm for 15 min as described for the human blood samples.\nClotting Time Measurement\nClotting times were determined by pipetting 0.1 ml of Owren's buffer (pre-warmed 37° C.) and 0.1 ml of human or rat plasma into yellow sample cuvettes. For studies with human plasma 10 U/ml human thrombin (10 ml) was placed in the reservoir assembly station of the MLA 700. (Medical Laboratory Automation, Electra 700 Reservoir Assembly). For rat studies, the human thrombin concentration was 25 U/ml. The cuvettes were vortexed and then placed on the MLA 700 sample wheel. The coagulation timer (MLA 700) automatically dispenses 0.1 ml human thrombin into the sample in each cuvette. Detection of the fibrin clot was determined optically by the MLA 700.\nIn separate studies, two compounds, Compound XIX and Compound XI, were dosed 50 mg/kg I.P. to three rats in each study group. […] \"Term\" indicates \"terminated sample\" where a clot was unable to form after approximately 99 seconds. When this occurred, the animal plasma was diluted 1: 1 with control rat plasma and the sample tested again. If need, the animal plasma was diluted 1:4 and tested again."}}, "note": "Values joined by “and” are separate entries in the source; they are usually repeats but may differ in a detail not shown here. Equal entries are not always repeated. Structures can show the parent of a compound that is named as a salt.", "data": [{"smiles": "CC(=O)N1C(=O)[C@@H](CCCNC(=N)N)[C@@H]1C(=O)N1CCCCC1", "note": "(relative stereo) [Compound XI, trans-4-(1-Piperidinocarbonyl)-3-guanidinooropyl-1-acetyl-2azetidinone hydrochloride salt]", "values": [{"measurement": "IC50", "setting": "human α-thrombin [1]; 3 min incubation of drug with enzyme, room temperature", "value": 90, "unit": "nM"}, {"measurement": "Thrombin k2 /ki (second order rate constant for inactivation of the enzyme)", "setting": "human α-thrombin [1]; human α-thrombin, s-2238, pH 7.4, room temperature", "value": "4.2 × 10^5 m^-1 min^-1"}, {"measurement": "IC50", "setting": "[2]", "value": 9, "unit": "nM"}, {"measurement": "IC (2-fold clotting time)", "setting": "human α-thrombin [3]", "value": 0.5, "unit": "µM"}, {"measurement": "Thrombin Induced Clotting Time (1:1 Control Plasma), terminated samples", "setting": "[4]; 0.5 hr. post dose, plasma diluted 1:1 with control rat plasma", "value": "term. (\"terminated sample\" where a clot was unable to form after approximately 99 seconds)"}, {"measurement": "Thrombin Induced Clotting Time (1:4 Control Plasma)", "setting": "[4]; 0.5 hr. post dose, hydrochloride salt, 50 mg/kg, in s", "value": "18.0 and 17.7 and 32.4"}, {"measurement": "Thrombin Induced Clotting Time, terminated samples", "setting": "[4]; 0.5 hr. post dose", "value": "term. (\"terminated sample\" where a clot was unable to form after approximately 99 seconds)"}, {"measurement": "Thrombin Induced Clotting Time (1:1 Control Plasma)", "setting": "[4]; 2 hr. post dose, plasma diluted 1:1 with control rat plasma, in s", "value": 45.7}, {"measurement": "Thrombin Induced Clotting Time (1:4 Control Plasma)", "setting": "[4]; 2 hr. post dose, in s", "value": 14.0}, {"measurement": "Thrombin Induced Clotting Time, terminated samples", "setting": "[4]; 2 hr. post dose", "value": "term. (\"terminated sample\" where a clot was unable to form after approximately 99 seconds)"}, {"measurement": "Thrombin Induced Clotting Time", "setting": "[4]; 2 hr. post dose, hydrochloride salt, 50 mg/kg", "value": "17.2 s and 14.7 s"}, {"measurement": "Thrombin Induced Clotting Time", "setting": "[4]; 5 hr. post dose, hydrochloride salt, 50 mg/kg", "value": "13.1 s and 11.4 s and 11.5 s"}, {"measurement": "Clotting time ex vivo, result in words", "setting": "[4]; three rats per group", "value": "prolonged clotting time"}]}]}
